Experiments:
[1] = tested on: a species of Streptococcus; assay: Effect on intestinal bacteria: number of a sp. of Streptococcus in feces; assay type: in vivo, ICR mice; conditions: 500 mg/kg/day
Method: (§1) (b) Effect on the intestinal bacterial colonies: […]
(§2) Effects of the present compound on intestinal bacteria
(§3) Each of the present compounds respectively produced in Examples 1 to 18 was orally administered continuously for 2 days at a daily dose rate of 500 mg/kg body weight to each of five female ICR mice of each group after 6 weeks of their birth.
(§4) Each of the two fecal specimens respectively collected from each mouse before and after one day of the administration was diluted with 100 times by weight of an anaerobic diluent (a phosphoric acid buffer solution) and was ground in a mortar, and 0.1 ml of the thus ground material was smeared on each of the following culture media for the following bacteria, and the thus inoculated culture media were incubated under the following conditions. Thereafter, the number of the following bacteria in each of the thus cultured media was determined.
a species of Streptococcus
TATAC agar 37° C., one day, […]

Lactobacillus bifidus = assay: Effect on intestinal bacteria: number of Lactobacillus bifidus in feces; assay type: in vivo, ICR mice; conditions: 500 mg/kg/day
Method: as §1, §2, §3, §4
BS agar 37° C., 5 days, […]

Escherichia coli = assay: Effect on intestinal bacteria: number of Escherichia coli in feces; assay type: in vivo, ICR mice; conditions: 500 mg/kg/day
Method: (b) Effect on the intestinal bacterial colonies:
[…] Each portion of the two kinds of the feces was cultured at 25° C. or 37° C. in a variety of culture medium for one to five days to see the state of Escherichia coli, Pseudomonas aeruginosa, a Streptococcus species, a Lactobacillus species, Lactobacillus bifidus and a Bacteroides species in the culture medium.
as §2
as §4, with “specimens respectively collected from each mouse before and after one day of the administration was diluted with 100 times” left out

[2] = tested on: Escherichia coli IFO 12734; assay: Antibacterial activity in vitro (MIC) against Escherichia coli; assay type: cell-based; conditions: IFO12734, Mueller-Hinton agar, 18 to 24 hours, 37° C., read-out: MIC (minimum growth inhibiting concentration) against Escherichia coli
Method: (§5) (c) Anti-bacterial activity (in vitro):
(§6) Minimum concentration of the present compound inhibiting the growth of the following bacteria was determined according to the standard procedures of Japan Society of Chemotherapy:
Escherichia coli IFO 12734 and
(§7) Determination of the antibacterial activity of the present compound produced in Examples 1 to 18, respectively was carried out according to the standard procedures of Japan Society of Chemotherapy for finding MIC (the minimum concentration of a specimen to inhibit the growth of a species of bacteria).
(§8) A series of diluted solutions of each of the present compound were mixed with 9 times by weight of Mueller-Hinton's culture medium as the culture medium for determining the sensitivity of a bacterial species, and flat agar culture plates were prepared by using the thus obtained mixture.
(§9) Each of the liquids respectively containing one of the bacterial species shown in Table 2 was smeared onto each of the thus prepared flat agar culture plates with a platinum loop, in length of about 2 cm, and the thus treated plates were incubated for 18 to 24 hours at 37° C. Thereafter, by observing the growth state of each bacterial species on the cultured plates, the minimum concentration of each compound completely inhibiting the growth of each bacterial species was found.

[3] = tested on: Staphylococcus aureus IAM 1011; assay: Antibacterial activity in vitro (MIC) against Staphylococcus aureus; assay type: cell-based; conditions: IAM1011, Mueller-Hinton agar, 18 to 24 hours, 37° C., read-out: MIC (minimum growth inhibiting concentration) against Staphylococcus aureus
Method: as §5, §6
Staphylococcus aureus IAM 1011
as §7, §8, §9

a species of Bacteroides = assay: Effect on intestinal bacteria: number of a sp. of Bacteroides in feces; assay type: in vivo, ICR mice; conditions: 500 mg/kg/day
Method: as §1, §2, §3, §4
a species of Bacteroides
NBGT agar 37° C., 5 days, […]

[4] = tested on: a species of Lactobacillus; assay: Effect on intestinal bacteria: number of a sp. of Lactobacillus in feces; assay type: in vivo, ICR mice; conditions: 500 mg/kg/day
Method: as §1, §2, §3, §4
a species of Lactobacillus
LBS agar 37° C., 5 days, […]

Pseudomonas aeruginosa = assay: Effect on intestinal bacteria: number of Pseudomonas aeruginosa in feces; assay type: in vivo, ICR mice; conditions: 500 mg/kg/day
Method: as §2, §3, §4
NAC agar 37° C., one day, […]

[5] = after oral administration for 2 days, female ICR mice, before: 6.4
[6] = after oral administration for 2 days, female ICR mice, before: 6.8
[7] = after oral administration for 2 days, female ICR mice, before: 8.3
[8] = after oral administration for 2 days, female ICR mice, before: 8.2
[9] = after oral administration for 2 days, female ICR mice, before: 9.0
[10] = after oral administration for 2 days, female ICR mice, before: <3.0

SMILES	Number of a sp. of Streptococcus after the administration ([1]; mouse, in vivo, po)	Number of Lactobacillus bifidus after the administration (Lactobacillus bifidus; mouse, in vivo, po)	Number of Escherichia coli after the administration (Escherichia coli; [5])	MIC [2]	MIC [3]	Number of a sp. of Bacterioides after the administration (a species of Bacteroides; mouse, in vivo, po)	Number of a sp. of Lactobacillus after the administration ([4]; mouse, in vivo, po)	Number of Pseudomonas aeruginosa after the administration (Pseudomonas aeruginosa; mouse, in vivo, po)	Number of a sp. of Streptococcus after the administration [1, 6]	Number of Lactobacillus bifidus after the administration (Lactobacillus bifidus; [7])	Number of a sp. of Bacterioides after the administration (a species of Bacteroides; [8])	Number of a sp. of Lactobacillus after the administration [4, 9]	Number of Pseudomonas aeruginosa after the administration (Pseudomonas aeruginosa; [10])	Number of Escherichia coli after the administration (Escherichia coli; mouse, in vivo, po)
COC(=O)Cc1ccc(NC(=O)C2=C(COC(C)=O)CSC3C(NC(=O)CSc4ccncc4)C(=O)N23)cc1 (stereo not shown) [Example 2, N-(4-carbomethoxymethylphenyl)-[7-(4-pyridylthioacetamido)caphalosporanic]amide]	6.6 Log10 (number of bacteria/g feces)	8.6 Log10 (number of bacteria/g feces)	6.5 Log10 (number of bacteria/g feces)	≥ 100 µg/mL	≥ 50 µg/mL	8.7 Log10 (number of bacteria/g feces)	9.0 Log10 (number of bacteria/g feces)	< 3.0 Log10 (number of bacteria/g feces)	–	–	–	–	–	–
Cc1nnc(SCC2=C(C(=O)NCCc3ccc(O)cc3)N3C(=O)C(NC(=O)Cn4cnnn4)C3SC2)s1 (stereo not drawn) [Example 17, N-[beta-(4-hydroxyphenyl)ethyl]-{7-(1-1H-tetrazolylacetamido)-3-[2-(5-methyl-1,3,4-thiadiazolyl)thiomethyl]-3-cephem-4-carboxylic}amide]	6.9 Log10 (number of bacteria/g feces)	8.4 Log10 (number of bacteria/g feces)	6.4 Log10 (number of bacteria/g feces)	≥ 3.12 µg/mL	≥ 0.78 µg/mL	8.1 Log10 (number of bacteria/g feces)	9.0 Log10 (number of bacteria/g feces)	< 3.0 Log10 (number of bacteria/g feces)	–	–	–	–	–	–
COC(=O)CNC(=O)c1ccc(NC(=O)C2=C(COC(C)=O)CSC3C(NC(=O)CSc4ccncc4)C(=O)N23)cc1 (stereo not shown) [Example 3, N-(4-carbomethoxymethylcarbamoylphenyl)-[7-(4-pyridylthioacetamido)cephalosporanic]amide]	6.7 Log10 (number of bacteria/g feces)	8.5 Log10 (number of bacteria/g feces)	6.5 Log10 (number of bacteria/g feces)	≥ 100 µg/mL	≥ 50 µg/mL	8.1 Log10 (number of bacteria/g feces)	9.1 Log10 (number of bacteria/g feces)	< 3.0 Log10 (number of bacteria/g feces)	–	–	–	–	–	–
COC(=O)Cc1ccc(NC(=O)C2=C(C)CSC3C(NC(=O)[C@H](N)c4ccccc4)C(=O)N23)cc1 (stereo partly drawn) [Example 4, N-(4-carbomethoxymethylphenyl)-[7-(D-alpha-aminophenylacetamido)desacetoxycephalosporanic]amide]	6.8 Log10 (number of bacteria/g feces)	8.3 Log10 (number of bacteria/g feces)	6.6 Log10 (number of bacteria/g feces)	≥ 100 µg/mL	≥ 100 µg/mL	8.3 Log10 (number of bacteria/g feces)	8.9 Log10 (number of bacteria/g feces)	< 3.0 Log10 (number of bacteria/g feces)	–	–	–	–	–	–
CC(=O)OCC1=C(C(=O)O)N2C(=O)C(NC(=O)CC#N)C2SC1 (stereo not shown) [Compound X, sodium 7(2-cyanoacetamido)cephalosporanate, reference compound]	9.1 Log10 (number of bacteria/g feces)	6.0 Log10 (number of bacteria/g feces)	9.0 Log10 (number of bacteria/g feces)	–	–	8.2 Log10 (number of bacteria/g feces)	4.6 Log10 (number of bacteria/g feces)	< 3.0 Log10 (number of bacteria/g feces)	–	–	–	–	–	–
CC(=O)OCC1=C(C(=O)Nc2ccc(C(N)=O)cn2)N2C(=O)C(NC(=O)CSc3ccncc3)C2SC1 (stereo not shown) [Example 6, N-(nicotinamido)-[7-(4-pyridylthioacetamido)cephalosporanic acid]amide]	6.7 Log10 (number of bacteria/g feces)	8.6 Log10 (number of bacteria/g feces)	6.7 Log10 (number of bacteria/g feces)	≥ 100 µg/mL	≥ 100 µg/mL	8.7 Log10 (number of bacteria/g feces)	9.0 Log10 (number of bacteria/g feces)	< 3.0 Log10 (number of bacteria/g feces)	–	–	–	–	–	–
CC1=C(C(=O)O)N2C(=O)[C@@H](NC(=O)[C@H](N)c3ccccc3)[C@H]2SC1 [CEFALEXIN, 7(D-alpha-amino-alpha-phenylacetamido)-3-methyl-3-cephem-4-carboxylic aci, reference compound]	–	–	9.2 Log10 (number of bacteria/g feces)	–	–	–	–	–	8.5 Log10 (number of bacteria/g feces)	8.0 Log10 (number of bacteria/g feces)	8.1 Log10 (number of bacteria/g feces)	4.0 Log10 (number of bacteria/g feces)	< 3.0 Log10 (number of bacteria/g feces)	–
CC(=O)OCC1=C(C(=O)O)N2C(=O)[C@@H](NC(=O)CSc3ccncc3)[C@H]2SC1 [CEPHAPIRIN, 7(4-pyridylthioacetamido)cephalosporanic acid, reference compound]	–	–	9.0 Log10 (number of bacteria/g feces)	–	–	–	–	–	9.1 Log10 (number of bacteria/g feces)	9.1 Log10 (number of bacteria/g feces)	8.5 Log10 (number of bacteria/g feces)	4.1 Log10 (number of bacteria/g feces)	< 3.0 Log10 (number of bacteria/g feces)	–
Cc1nnc(SCC2=C(C(=O)O)N3C(=O)[C@@H](NC(=O)Cn4cnnn4)[C@H]3SC2)s1 [SODIUM CEFAZORIN, reference compound]	8.6 Log10 (number of bacteria/g feces)	9.1 Log10 (number of bacteria/g feces)	–	–	–	7.3 Log10 (number of bacteria/g feces)	4.0 Log10 (number of bacteria/g feces)	< 3.0 Log10 (number of bacteria/g feces)	–	–	–	–	–	8.9 Log10 (number of bacteria/g feces)

Reference: patent publication US4758558A, “N-(substituted)-[7-(2-cyanoacetamido)cephalosporanic]amide derivatives having antibiotic utility” (priority 1982, dated 1988)
